“And” between values parts separate entries of the source, which are not always exact repeats. Equal entries are not always repeated.
Columns and labels:
BSA = BSA (Bos taurus, UniProt P02769); assay: Fluorescence response of HX103 with BSA (control protein); assay type: binding; details: Fig. 2d, n=1-3
EGFR wild-type [1] = biological target: T1, EGFR wild-type (Homo sapiens, UniProt P00533); assay: Kinase inhibition assay (fluorescent mobility-shift assay); assay type: biochemical; set-up: Kinase activity: unit not given here; details: for Kinase activity: EGFR WT, n=1-3
T1 construct: Recombinant human EGFR (amino acids 668–1210, #PR7295B); purchased Thermo Fisher PR7295B
T1 sequence (P00533 668-1210): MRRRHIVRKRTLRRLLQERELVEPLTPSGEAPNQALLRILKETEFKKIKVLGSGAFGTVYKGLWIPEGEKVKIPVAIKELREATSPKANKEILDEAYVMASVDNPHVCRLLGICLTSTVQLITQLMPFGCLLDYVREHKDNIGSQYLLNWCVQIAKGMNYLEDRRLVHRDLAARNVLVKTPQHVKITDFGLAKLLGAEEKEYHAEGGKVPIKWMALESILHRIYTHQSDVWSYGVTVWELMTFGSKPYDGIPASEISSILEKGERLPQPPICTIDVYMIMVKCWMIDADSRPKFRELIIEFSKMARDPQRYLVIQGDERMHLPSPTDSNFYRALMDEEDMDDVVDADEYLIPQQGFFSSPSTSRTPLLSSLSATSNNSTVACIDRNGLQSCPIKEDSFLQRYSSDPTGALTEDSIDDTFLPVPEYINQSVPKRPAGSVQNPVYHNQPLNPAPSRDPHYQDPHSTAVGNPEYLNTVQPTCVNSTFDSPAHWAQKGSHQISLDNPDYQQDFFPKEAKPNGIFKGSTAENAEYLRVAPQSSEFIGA

HCC827 cells = assay: MTT cytotoxicity assay; assay type: cell-based; details: Homo sapiens, EGFR 19del, 48 h, n=3
H1975 cells = assay: Subcellular co-localization of HX103 (confocal); assay type: cell-based, human; details: HX103 5 µM, 0.5 h, ER/Mito/Lyso trackers
Description: Supplementary Figure 6. Application of HX103 in living cells. (a-c) Subcellular co-localization of HX103 with Lyso tracker (a), Mito tracker (b) or ER tracker (c). H1975 cells were treated with HX103 (5 µM, 0.5 h) and stained with Lyso tracker ([…], 30 min), Mito tracker (100 nM, 15 min) or ER tracker (500 nM, 15 min). After a PBS washing, the cells were used for confocal microscopy. Scale bar, 20 µm. Three biological independent experiments were repeated with similar results. (d) The mean fluorescence intensity analysis along white arrows in the overlay image in (a-c). Source data are provided as a Source Data file.
(1 picture or pasted object on this page, not shown here)

Hela cells = assay: FACS assay in cultured cells; details: for HX103 dose-dependent signal (Supplementary Fig. 18): 20 µM = 100
Description: Briefly, the cultured cells were seeded on the petri dish and counted using Count star BioMed automated cell counter. Around 10^6 live-cells were collected and were pelleted (2000×g, 3 min), followed by washing with PBS (2x). Cells were then resuspended in PBS buffer containing 0.1% BSA (1 × 10^6 cells/mL). […] The cell suspension was resuspended in PBS and analyzed with a FACSVerse^TM flow cytometer (BD Biosciences, LSRFortessa). About 10,000 events per tube were analyzed and the mean fluorescence intensity was detected and analyzed.
For the FACS assay with EGFR antibody, around 10^6 live-cells were collected and washed with PBS (2x). The cells were fixed by 400 µL 4% paraformaldehyde for 15 min at room temperature, followed by permeabilization with 0.1% Triton X-100 for 10 min and blocking with 5% BSA for 30 min. […] The cells were then washed with 0.5% BSA/PBS (3x) and resuspended in 400 µL of 0.1% BSA/PBS. […] The resuspended cell suspension was then analyzed on a FACSVerseTM flow cytometer (BD Biosciences, LSRFortessa). Nonspecific fluorescence binding was omitted by Rabbit mAb IgG isotype control (#3900, CST, 1:100) and the corresponding mean fluorescence was subtracted from the signal measured with each primary antibody. About 10,000 events per tube were analyzed and the mean fluorescence intensity was detected and analyzed.
Subsequently, the treated cells were incubated for 30 min at 37 °C, followed by washing with PBS buffer three times. […] Finally, the co-stained cells were washed with 0.5% BSA/PBS for three times and resuspended in 400 µL of 0.1% BSA/PBS. The obtained cell suspension was ready for analysis. Nonspecific fluorescence binding was omitted by Rabbit mAb IgG isotype control (#3900, CST, 1:100) as described above.
Nonspecific fluorescence binding was omitted by Rabbit mAb IgG isotype control (#3900, CST, 1:100). […] After incubation for another 30 min at room temperature, the co-stained cells were washed with 0.5% BSA/PBS for three times and resuspended in 400 µL of 0.1% BSA/PBS. The obtained cell suspension was ready for analysis. Nonspecific fluorescence binding was omitted by Rabbit mAb IgG isotype control (#3900, CST, 1:100) as described above.
The cells were seeded on the petri dish and cultured at the normal condition with 10% FBS, and that was changed to serum-free condition for 24 h when the cells proliferated at ~80% confluence. […] Nonspecific fluorescence binding was omitted by Rabbit mAb IgG isotype control (#3900, CST, 1:100) as described above.

[2] = test system: biopsy samples from NSCLC patients; assay: HX103-based multicolor FACS, biopsy samples; assay type: cell-based, human
EGFR = biological target: T2, EGFR (Homo sapiens, UniProt P00533); assay: Fluorescence spectra of HX103 with EGFR, alone or with competing inhibitors (Fig. 2a); assay type: binding
T2 construct: Recombinant human EGFR (amino acids 668–1210, #PR7295B); purchased Thermo Fisher PR7295B
T2 sequence (P00533 668-1210): as above

EGFR wild-type [3] = biological target: T1, EGFR wild-type; assay: Fluorescence turn-on response / titration of HX103 with recombinant EGFR;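 on Fluorescence intensity at 570 nm: 100% is HX103 fluorescence with wild-type EGFR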; assay type: binding; details: for Fluorescence intensity at 570 nm / Fluorescence response of HX103 to EGFR wild-type: n=1-3; for Fluorescence intensity, Wild-type: Fig. 2c; for Fluorescence response of HX103 to EGFR wild-type: Supplementary Fig. 2f
Description: (d) Fluorescence spectra change of HX103 (5 µ M) with increasing concentration of EGFR L858R
(e) Fluorescence spectra change of HX103 (5 µ M ) with
increasing concentration of EGFR 19del (0 to 6 µM) in PBS buffer. (f) Titration curve of HX103
(5 µM) with increasing concentration of EGFRs (0 to 6 µM). The apparent binding affinity (Kd)
The fluorescence titration curve was fitted on one -
site specific binding model. I and I0 represent the intensities of HX103 at 570 nm in the presence
and absence of protein. Data represent average val ues ± SD, n = 3 independent experiments per
dissolved in dimethyl sulfoxide (DMSO) to obtain stock solutions (10 mM). The prepared stock
solution was diluted in sodium phosphate buffer (PBS, 1 M, pH=7.4) to obtain the desired final
concentration solution, containing 0.1% (v/v) DMSO as a cosolvent.
and emission fluorescence spectra of the solution before/after addition o f different concentration
Data analysis：The obtained fluorescence intensity at 570 nm (Excitation wavelength was 440
nm) in each sample was normalized by using the fluorescence intensity of HX103 in the presence
of EGFR. Specifically, the fluorescence intensity of HX103 in the presence of EGFR wild-type
was set at 100% to normalized that of the remaining samples.

EGFR 19del = biological target: T3, EGFR 19del (Homo sapiens, UniProt P00533, DEL746-750); assay: Kinase inhibition assay (fluorescent mobility-shift assay); assay type: biochemical; set-up: Kinase activity: unit not given here; details: for Kinase activity: 19del, n=1-3
T3 construct: purchased Thermo Fisher PV6179
T3 sequence (P00533 with tags, fused parts or gaps DEL746-750): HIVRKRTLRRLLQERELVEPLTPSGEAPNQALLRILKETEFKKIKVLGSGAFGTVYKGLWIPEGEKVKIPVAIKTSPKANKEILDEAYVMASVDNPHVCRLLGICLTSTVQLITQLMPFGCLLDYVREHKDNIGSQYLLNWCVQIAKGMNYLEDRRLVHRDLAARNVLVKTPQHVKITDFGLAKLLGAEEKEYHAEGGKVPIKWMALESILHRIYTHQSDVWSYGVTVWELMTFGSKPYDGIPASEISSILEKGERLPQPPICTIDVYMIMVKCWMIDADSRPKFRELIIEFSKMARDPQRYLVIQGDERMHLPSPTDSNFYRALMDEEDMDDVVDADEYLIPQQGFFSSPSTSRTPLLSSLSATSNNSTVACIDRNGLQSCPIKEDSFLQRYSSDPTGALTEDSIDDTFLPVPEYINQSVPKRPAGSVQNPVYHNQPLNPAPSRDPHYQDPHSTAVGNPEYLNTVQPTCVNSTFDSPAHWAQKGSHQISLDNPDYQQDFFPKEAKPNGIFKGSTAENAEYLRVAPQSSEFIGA

[4] = Fig. 6d, Mutation, average over patients
[5] = Fig. 6d, Mutation, one value per patient
[6] = Fig. 6d, WT, average over patients
[7] = Fig. 6d, WT, one value per patient

Chain of BSA (P02769 25-607): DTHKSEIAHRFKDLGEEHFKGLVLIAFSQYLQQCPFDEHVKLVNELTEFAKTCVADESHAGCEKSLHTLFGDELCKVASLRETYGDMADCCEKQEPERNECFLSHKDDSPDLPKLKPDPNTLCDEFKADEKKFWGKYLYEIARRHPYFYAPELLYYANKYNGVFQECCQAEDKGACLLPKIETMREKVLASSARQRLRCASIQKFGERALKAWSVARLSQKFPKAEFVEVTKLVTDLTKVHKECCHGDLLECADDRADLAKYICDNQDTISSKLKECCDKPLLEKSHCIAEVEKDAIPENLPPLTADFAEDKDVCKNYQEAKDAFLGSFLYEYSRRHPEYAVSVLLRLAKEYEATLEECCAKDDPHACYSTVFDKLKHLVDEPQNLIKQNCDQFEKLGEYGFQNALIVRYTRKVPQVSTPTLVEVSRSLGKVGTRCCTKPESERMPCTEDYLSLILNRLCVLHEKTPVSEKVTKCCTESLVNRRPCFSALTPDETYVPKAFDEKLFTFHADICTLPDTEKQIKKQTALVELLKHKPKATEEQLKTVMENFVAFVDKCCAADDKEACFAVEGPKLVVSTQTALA

Fluorescence intensity at 570 nm (BSA): 39.1473 and 21.3173 and 35.8927 | Kinase activity (EGFR wild-type [1]; Log [HX103 (M)] -7): 3.448 and 5.933 and 4.591 | Kinase activity (EGFR wild-type [1]; Log [HX103 (M)] -7.5): 17.07 and 12.53 and 15.46 | Kinase activity (EGFR wild-type [1]; Log [HX103 (M)] -8): 28.39 and 28.36 and 28.22 | Kinase activity (EGFR wild-type [1]; Log [HX103 (M)] -8.5): 52.62 and 55.81 and 54.21 | Kinase activity (EGFR wild-type [1]; Log [HX103 (M)] -9): 85.4 and 76.53 and 77.56 | IC50 (EGFR wild-type [1]; n = 3): 4 nM | Fluorescence intensity, HX103+EGFR (EGFR; wavelength 666 nm): 3266.47 | Fluorescence intensity, HX103+EGFR (EGFR; wavelength 669 nm): 3104.58 | Fluorescence intensity, HX103+EGFR (EGFR; wavelength 671 nm): 2932.33 | Fluorescence intensity, HX103+EGFR (EGFR; wavelength 673 nm): 2750.71 | Fluorescence intensity, HX103+EGFR (EGFR; wavelength 676 nm): 2569.21 | Fluorescence intensity, HX103+EGFR (EGFR; wavelength 678 nm): 2397.75 | Fluorescence intensity, HX103+EGFR (EGFR; wavelength 681 nm): 2246.21 | Fluorescence intensity, HX103+EGFR (EGFR; wavelength 683 nm): 2119.91 | Fluorescence intensity, HX103+EGFR (EGFR; wavelength 686 nm): 2016.43 | Fluorescence intensity, HX103+EGFR (EGFR; wavelength 688 nm): 1932.61 | Fluorescence intensity, HX103+EGFR (EGFR; wavelength 690 nm): 1865.3 | Fluorescence intensity, HX103+EGFR (EGFR; wavelength 693 nm): 1811.29 | Fluorescence intensity, HX103+EGFR (EGFR; wavelength 695 nm): 1767.27 | Fluorescence intensity, HX103+EGFR (EGFR; wavelength 698 nm): 1729.9 | Fluorescence intensity, HX103+EGFR (EGFR; wavelength 700 nm): 1695.87 | Fluorescence intensity at 570 nm (EGFR wild-type [3]; Fig. 2b, EGFR+Afa.+HX103): 40.8352 and 40.5015 and 39.6477 | Fluorescence intensity at 570 nm (EGFR wild-type [3]; Fig. 2b, EGFR+Compound 4+HX103): 34.8404 and 34.012 and 33.2139 | Fluorescence intensity at 570 nm (EGFR wild-type [3]; Fig. 2b, EGFR+Gef.+HX103): 52.1782 and 56.1359 and 43.6715 | Fluorescence intensity at 570 nm (EGFR wild-type [3]; Fig. 2b, EGFR+HX103): 102.993 and 106.909 and 90.0974 | Fluorescence intensity, Wild-type (EGFR wild-type [3]; wavelength 666 nm): 3857.08 | Fluorescence intensity, Wild-type (EGFR wild-type [3]; wavelength 669 nm): 3668.59 | Fluorescence intensity, Wild-type (EGFR wild-type [3]; wavelength 671 nm): 3481.17 | Fluorescence intensity, Wild-type (EGFR wild-type [3]; wavelength 673 nm): 3297.98 | Fluorescence intensity, Wild-type (EGFR wild-type [3]; wavelength 676 nm): 3120.62 | Fluorescence intensity, Wild-type (EGFR wild-type [3]; wavelength 678 nm): 2950.6 | Fluorescence intensity, Wild-type (EGFR wild-type [3]; wavelength 681 nm): 2789.44 | Fluorescence intensity, Wild-type (EGFR wild-type [3]; wavelength 683 nm): 2638.8 | Fluorescence intensity, Wild-type (EGFR wild-type [3]; wavelength 686 nm): 2500.58 | Fluorescence intensity, Wild-type (EGFR wild-type [3]; wavelength 688 nm): 2376.72 | Fluorescence intensity, Wild-type (EGFR wild-type [3]; wavelength 690 nm): 2269.12 | Fluorescence intensity, Wild-type (EGFR wild-type [3]; wavelength 693 nm): 2178.16 | Fluorescence intensity, Wild-type (EGFR wild-type [3]; wavelength 695 nm): 2100.14 | Fluorescence intensity, Wild-type (EGFR wild-type [3]; wavelength 698 nm): 2030.74 | Fluorescence intensity, Wild-type (EGFR wild-type [3]; wavelength 700 nm): 1965.66 | Fluorescence intensity at 570 nm (EGFR wild-type [3]; Fig. 2d, HX103 with EGFR WT): 95.7649 and 96.5955 and 107.639 | fluorescence turn-on response (EGFR wild-type [3]; HX103 5 µM in PBS buffer (0.1% DMSO), 570 nm): high fluorescence | Kd (EGFR wild-type [3]; HX103 5 µM, EGFR 0 to 6 µM in PBS, one-site specific binding model, read-out: apparent binding affinity (Kd)): 2700 ± 400 nM | Fluorescence response of HX103 to EGFR wild-type (EGFR wild-type [3]; EGFR 0.1 µM): 1.163 and 1.321 and 1.006 | Fluorescence response of HX103 to EGFR wild-type (EGFR wild-type [3]; EGFR 0.5 µM): 2.913 and 3.724 and 2.102 | Fluorescence response of HX103 to EGFR wild-type (EGFR wild-type [3]; EGFR 5 µM): 10.0441 and 11.0703 and 9.62 | Fluorescence response of HX103 to EGFR wild-type (EGFR wild-type [3]; EGFR 6 µM): 11.047 and 11.7068 and 10.3878 | Kinase activity (EGFR 19del; Log [HX103 (M)] -7.5): 4.826 and 8.074 and 4.95 | Kinase activity (EGFR 19del; Log [HX103 (M)] -8): 14.14 and 14.3 and 14.2 | Kinase activity (EGFR 19del; Log [HX103 (M)] -8.5): 33.15 and 25.38 and 27.26 | Kinase activity (EGFR 19del; Log [HX103 (M)] -9): 51.95 and 59.57 and 58.76 | IC50 (EGFR 19del; n = 3): 1.3 nM
Structure (SMILES): COc1cc2c(Nc3ccc(F)c(Cl)c3)ncnc2cc1OCCCNc1ccc(S(=O)(=O)N(C)C)c2nonc12 [HX103]
IC50 (HCC827 cells): 9300 nM | subcellular distribution of HX103-labeled EGFR (H1975 cells): internalized and translocated in the endoplasmic reticulum | normalized MFI of HX103 labeling (Hela cells; HX103 5 µM, 30 min, replicates n=1-3): 54.5064% and 65.6652% and 60.0858% | EGFR(+) HX103 (+) (%) (Hela cells; HX103 5 µM, replicates n=1-3): 13.055% and 13.1% and 19.51% | EGFR(+) HX103 (+) (%) AVE (Hela cells; Hela, AVE of n=3): 15.2217% | HX103 (+) (%) AVE (Hela cells; Hela, AVE of n=3): 15.7267% | HX103 dose-dependent signal (Supplementary Fig. 18) (Hela cells; Hela, HX103 0.37 µM): 10.7485 and 20.011 and 16.0693 | HX103 dose-dependent signal (Supplementary Fig. 18) (Hela cells; Hela, HX103 1.1 µM): 23.8614 and 34.4348 and 25.4882 | HX103 dose-dependent signal (Supplementary Fig. 18) (Hela cells; Hela, HX103 3.3 µM): 36.4324 and 54.3602 and 56.4764 | HX103 dose-dependent signal (Supplementary Fig. 18) (Hela cells; Hela, HX103 10 µM): 67.5297 and 65.6787 and 69.9637 | HX103 dose-dependent signal (Supplementary Fig. 18) (Hela cells; Hela, HX103 15 µM): 106.382 and 89.2391 and 92.3446 | HX103 dose-dependent signal (Supplementary Fig. 18) (Hela cells; Hela, HX103 20 µM): 100 | HX103 signal (Supplementary Fig. 7) (Hela cells; Hela, HX103 alone or with Gefitinib, replicates n=1-3): 110.043 and 93.8574 and 96.1 | EGFR(+) HX103 (+) (%) (Hela cells; Hela, replicates n=1-3): 19.51% and 13.055% and 13.1% | HX103(+) (%) (Hela cells; Hela, replicates n=1-3): 15.88% and 13.1% and 18.2% | mean ratio of EGFR(+)HX103(+), responders ([2]; CR or PR, n = 9): 43.5 ± 2.8% | mean ratio of HX103(+), responders ([2]; CR or PR, n = 9): 54.1 ± 3.3% | EGFR(+) HX103 (+) (%) AVE ([2]; Fig. 6f, CR/PR, average): 43.5167% | HX103 (+) (%) AVE ([2]; Fig. 6f, CR/PR, average): 54.1% | EGFR(+) HX103 (+) (%) AVE ([2]; Fig. 6f, SD/PD, average): 9.47% | HX103 (+) (%) AVE ([2]; Fig. 6f, SD/PD, average): 17.0025% | EGFR(+) HX103 (+) (%) ([2]; Fig. 6g, Patient (No. 3)): 26.16% | EGFR(+) HX103 (+) (%) ([2]; Fig. 6h, Patient (No. 7)): 34.2% | HX103(+) (%) ([2]; Fig. 6h, Patient (No. 7)): 51.5% | EGFR(+) HX103 (+) (%) AVE [2, 4]: 34.0833% | HX103 (+) (%) AVE [2, 4]: 48.2347% | EGFR(+) HX103 (+) (%) [2, 5]: 47.7% and 46.42% and 26.16% and 37.95% and 54.7% and 42.61% and 34.2% and 4.84% and 50.92% and 41.57% and 2.07% and 30.8% and 55.7% and 4.81% | HX103(+) (%) [2, 5]: 47.95% and 53.5% and 30.41% and 49.49% and 61.89% and 48.6% and 51.54% and 13.72% and 92.61% and 50.98% and 11.82% and 76% and 77.45% and 45.5% and 12.06% | EGFR(+) HX103 (+) (%) AVE [2, 6]: 3.4875% | HX103 (+) (%) AVE [2, 6]: 10.0231% | EGFR(+) HX103 (+) (%) [2, 7]: 2.605% and 13.7% and 4.44% and 3.27% and 0.6% and -0.34% and 1.35% and 4.89% and 0.098% and 0.24% and 1.08% and 10.76% and 4.24% and 2.1% and 0.447% and 6.32% | HX103(+) (%) [2, 7]: 5.005% and 21.85% and 10.96% and 7.41% and 3.16% and -1.81% and 3.59% and 12.92% and 4.005% and 1.16% and 7.12% and 18.43% and 19.52% and 10.47% and 20.56% and 16.02% | mean ratio of EGFR(+)HX103(+), non-responders ([2]; SD or PD, n = 4): 9.5 ± 5.6% | mean ratio of HX103(+), non-responders ([2]; SD or PD, n = 4): 17.0 ± 4.5%
